Measurements reported in US20130165483A1, “HETEROARYLS AND USES THEREOF” (MILLENNIUM PHARMACEUTICALS, INC., priority 2011, published 2013).

Target: T1, VPS34 (Homo sapiens, UniProt Q8NEB9)
T1 construct: GST (N); host or cells: SF9 insect cells (baculovirus)
Experiment: Human VPS34 enzyme assay (Adapta TR-FRET)
Format: biochemical
Conditions: for inhibition at 1.11 µM: 1 h, at a 1.11 μM concentration, read-out: VPS34 Percent Inhibition; for IC50: VPS34 enzyme
Procedure: VPS34 (accession number GB:BC033004) was cloned into pDEST20-Thombin as N-terminal GST tagged fusion proteins using the Gateway system (Invitrogen, catalog#11804-013). The sequences were verified before recombinant protein expression using the Baculovirus Expression System with Gateway® Technology.
For expression VPS34 was infected at 1MOI in SF9 cells and harvested 72 hours post infection.
For purification, VPS34 is purified by Glutathione Sepharose 4 Fast Flow (GE Healthcare #17-5132-03) followed by HiTrap Q (GE Healthcare #17-1153-01).
Human VPS34 enzyme assay method
100mL compounds in DMSO are added to wells of a 384 well microtitre plate (Greiner 780076). At room temperature: 5ul VPS34 reaction buffer (Invitrogen Assay Buffer Q (diluted 1 in 5 with nanopure water) plus 2 mM DTT and 2 mM MnCl2) containing ATP (20 uM, Promega) and 200 uM PI—PS substrate (Invitrogen PV5122) is added followed immediately by 5ul VPS34 reaction buffer (as above) containing VPS34 (5 nM, Millennium Protein Sciences Group) and the mixture is incubated with shaking at room temperature for 1 hour. Then 5ul VPS34 stop-detect mix (as per Invitrogen Adapta Assay kit (PV5009) instructions (contains kinase quench buffer, TR-FRET buffer, Adapta Eu anti-ADP antibody and Alexa Fluor 647 ADP tracer)) is added to quench the reaction. The plates are then incubated for 30 minutes at room temperature with shaking and then read on a BMG PheraStar Plus reader.
For the assay methods described above, test compound percent inhibition, at various concentrations, is calculated relative to control (DMSO and EDTA) treated samples. Compound concentration versus percent inhibition curves are fitted to generate IC50 values. One skilled in the art will appreciate that the values generated either as percentage inhibition at a single concentration or IC50 values are subject to experimental variation.

T1 sequence (Q8NEB9 whole entry): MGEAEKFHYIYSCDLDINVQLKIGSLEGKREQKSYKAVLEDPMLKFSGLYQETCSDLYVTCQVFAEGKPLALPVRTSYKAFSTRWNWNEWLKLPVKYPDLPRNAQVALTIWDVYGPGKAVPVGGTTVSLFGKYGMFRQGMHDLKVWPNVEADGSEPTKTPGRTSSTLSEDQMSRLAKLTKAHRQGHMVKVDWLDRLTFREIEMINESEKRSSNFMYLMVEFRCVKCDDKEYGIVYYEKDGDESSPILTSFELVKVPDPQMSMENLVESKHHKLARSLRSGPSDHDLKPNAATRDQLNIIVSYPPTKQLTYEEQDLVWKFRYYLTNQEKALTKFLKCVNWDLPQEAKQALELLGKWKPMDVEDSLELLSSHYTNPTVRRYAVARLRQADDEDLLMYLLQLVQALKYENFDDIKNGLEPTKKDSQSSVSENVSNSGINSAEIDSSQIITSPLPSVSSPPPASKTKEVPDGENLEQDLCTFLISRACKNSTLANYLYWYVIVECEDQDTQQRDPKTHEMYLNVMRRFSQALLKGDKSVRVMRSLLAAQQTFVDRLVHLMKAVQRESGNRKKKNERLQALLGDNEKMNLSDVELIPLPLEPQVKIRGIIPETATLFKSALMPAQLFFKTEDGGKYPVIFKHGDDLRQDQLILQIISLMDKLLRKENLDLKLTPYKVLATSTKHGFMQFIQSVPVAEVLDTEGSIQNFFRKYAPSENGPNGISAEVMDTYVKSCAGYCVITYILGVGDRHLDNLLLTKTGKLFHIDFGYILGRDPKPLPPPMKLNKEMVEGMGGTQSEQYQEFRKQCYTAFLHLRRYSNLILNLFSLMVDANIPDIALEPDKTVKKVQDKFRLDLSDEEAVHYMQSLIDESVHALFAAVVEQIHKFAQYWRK

| Structure (SMILES) | inhibition at 1.11 µM | IC50 |
| --- | --- | --- |
| CC(=O)Nc1cc(-c2cc(C(N)=O)n(-c3ccccc3Cl)n2)ccn1 [I-14, 3-(2-acetamidopyridin-4-y1)-1-(2-chlorophenyl)-1H-pyrazole-5-carboxamide] | 45% | 1 to 10 µM |
| CC(=O)Nc1cc(-c2cc(-c3nnc[nH]3)n(-c3ccc(Cl)cc3Cl)n2)ccn1 [I-15, N-{4-[1-(2,4-dichlorophenyl)-5-(4H-1,2,4-triazol-3-yl)-1H-pyrazol-3-yl]pyridin-2-yl}acetamide] | > 99% | < 0.1 µM |
| CC(=O)Nc1cc(-c2cc(-c3nnc[nH]3)n(-c3ccccc3Cl)n2)ccn1 [I-21, N-{4-[1-(2-chlorophenyl)-5-(1H-1,2,4-triazol-3-yl)-1H-pyrazol-3-yl]pyridin-2-yl}acetamide] | 96% | 0.1 to 1 µM |
| CC(=O)Nc1cc(-c2cc(-c3nnc[nH]3)cn2CC2CC2)ccn1 [I-87, N-{4-[1-(cyclopropylmethyl)-4-(4H-1,2,4-triazol-3-yl)-1H-pyrrol-2-yl]pyridin-2-yl}acetamide] | 93% | 0.1 to 1 µM |
| C=CCn1cc(-c2cc(NC(=O)C3CC3)ncc2C)cc1-c1nc[nH]n1 [I-88, N-{4-[1-allyl-5-(1H-1,2,4-triazol-3-yl)-1H-pyrrol-3-yl]-5-methylpyridin-2-yl}cyclopropanecarboxamide] | 69% | < 0.1 µM |
| CC(=O)Nc1cc(-c2cc(C(N)=O)n(-c3ncccc3Cl)c2)c(C)cn1 [I-90, 4-(2-acetamido-5-methylpyridin-4-yl)-1-(3-chloropyridin-2-yl)-1H-pyrrole-2-carboxamide] | 39% | 1 to 10 µM |
| CC(=O)Nc1cc(-c2cc(C(N)=O)n(CC3CC3)c2)c(C)cn1 [I-92, 4-(2-acetamido-5-methylpyridin-4-yl)-1-(cyclopropylmethyl)-1H-pyrrole-2-carboxamide] | 68% | 0.1 to 1 µM |
| CC(=O)Nc1cc(-c2cc(-c3nc[nH]n3)n(-c3ccccc3Cl)c2)c(C)cn1 [I-93, N-{4-[1-(2-chlorophenyl)-5-(1H-1,2,4-triazol-3-yl)-1H-pyrrol-3-yl]-5-methylpyridin-2-yl}acetamide] | > 99% | < 0.1 µM |
| CCCn1cc(-c2cc(NC(=O)C3CC3)ncc2C)cc1-c1nc[nH]n1 [I-94, N-{5-methyl-4-[1-propyl-5-(4H-1,2,4-triazol-3-yl)-1H-pyrrol-3-yl]pyridin-2-yl}cyclopropanecarboxamide] | > 99% | 0.1 to 1 µM |
| CC(=O)Nc1cc(-c2cc(C(N)=O)c(-c3ccnc(NC(C)=O)c3)n2C)ccn1 [I-95, 2,5-bis(2-acetamidopyridin-4-yl)-1-methyl-1H-pyrrole-3-carboxamide] | 18% | 1 to 10 µM |
| CC(=O)Nc1cc(-c2cc(C(N)=O)n(-c3ccccc3Cl)c2)c(C)cn1 [I-97, 4-(2-acetamido-5-methylpyridin-4-yl)-1-(2-chlorophenyl)-1H-pyrrole-2-carboxamide] | 96% | 0.1 to 1 µM |
| Cc1cnc(NC(=O)C2CC2)cc1-c1cc(-c2nc[nH]n2)n(-c2ccccc2Cl)c1 [I-98, N-{4-[1-(2-chlorophenyl)-5-(1H-1,2,4-triazol-3-yl)-1H-pyrrol-3-yl]-5-methylpyridin-2-yl}cyclopropanecarboxamide] | > 99% | < 0.1 µM |
| Cc1cnc(NC(=O)C2CC2)cc1-c1cc(C(N)=O)n(-c2ccccc2Cl)c1 [I-99, 1-(2-chlorophenyl)-4-{2-[(cyclopropylcarbonyl)amino]-5-methylpyridin-4-yl}-1H-pyrrole-2-carboxamide] | 93% | 0.1 to 1 µM |
| CCn1cc(C(N)=O)cc1-c1ccnc(NC(C)=O)c1 [I-100, 5-(2-acetamidopyridin-4-yl)-1-ethyl-1H-pyrrole-3-carboxamide] | 54% | 0.1 to 1 µM |
| CC(=O)Nc1cc(-c2cc(-c3ccccc3C)c(C(N)=O)[nH]2)ccn1 [I-102, 5-(2-acetamidopyridin-4-yl)-3-(2-methylphenyl)-1H-pyrrole-2-carboxamide] | 96% | 0.1 to 1 µM |
| CC(=O)Nc1cc(-c2cc(-c3ccccc3C)c(-c3nc[nH]n3)n2C)ccn1 [I-103, N-{4-[1-methyl-4-(2-methylphenyl)-5-(1H-1,2,4-triazol-3-yl)-1H-pyrrol-2-yl]pyridin-2-yl}acetamide] | 39% | 1 to 10 µM |

Second part, the compound after the results:

| inhibition at 1.11 µM | IC50 | Structure (SMILES) |
| --- | --- | --- |
| 6% | 1 to 10 µM | CC(=O)Nc1cc(-c2cc(-c3ccccc3Cl)n(-c3nccs3)n2)ccn1 [I-3, N-[4-[5-(2-chlorophenyl)-1-(1,3-thiazol-2-yl)-1H-pyrazol-3-yl]pyridin-2-yl]acetamide] |
| > 99% | 0.1 to 1 µM | CCn1cc(-c2nnc[nH]2)cc1-c1ccnc(NC(C)=O)c1 [I-86, N-{4-[1-ethyl-4-(4H-1,2,4-triazol-3-yl)-1H-pyrrol-2-yl]pyridin-2-yl}acetamide] |
| > 99% | < 0.1 µM | CC(=O)Nc1cc(-c2cc(C(N)=O)n(-c3ccc(N)cc3Cl)c2)c(C)cn1 [I-89, 4-(2-acetamido-5-methylpyridin-4-yl)-1-(4-amino-2-chlorophenyl)-1H-pyrrole-2-carboxamide] |
| > 99% | < 0.1 µM | CC(=O)Nc1cc(-c2cc(-c3nnc[nH]3)n(CC3CC3)c2)c(C)cn1 [I-91, N-{4-[1-(cyclopropylmethyl)-5-(4H-1,2,4-triazol-3-yl)-1H-pyrrol-3-yl]-5-methylpyridin-2-yl}acetamide] |
| 96% | 0.1 to 1 µM | CC(=O)Nc1cc(-c2cc(-c3nc[nH]n3)n(-c3ncccc3Cl)c2)c(C)cn1 [I-96] |
| 60% | 0.1 to 1 µM | CC(=O)Nc1cc(-c2cc(-c3ccccc3C)c(-c3nnc[nH]3)[nH]2)ccn1 [I-101, N-{4-[4-(2-methylphenyl)-5-(4H-1,2,4-triazol-3-yl)-1H-pyrrol-2-yl]pyridin-2-yl}acetamide] |
| 7% | 1 to 10 µM | CC(=O)Nc1cc(-c2cc(-c3ccccc3C)c(C(N)=O)n2C)ccn1 [I-104, 5-(2-acetamidopyridin-4-yl)-1-methyl-3-(2-methylphenyl)-1H-pyrrole-2-carboxamide] |
